Legend:
Format in all cases: binding
[1] = target: TEAD3 YAP50-100 (Homo sapiens, UniProt Q99594); test: TEAD3-YAP HTRF (TR-FRET) protein-protein interaction assay; settings: TEAD3, YAP peptide 50-100, HTRF; for EC50: read-out: TEAD3 YAP50-100 HTRF combined: EC50
Procedure: (§1) Purified His-tagged TEAD protein (YAP Binding Domain, amino acids 217-447) is pre-incubated with Europium labelled anti-His antibody tracer (Perkin Elmer Cat #AD0110). Small molecule Inhibitors are then incubated with the TEAD-Eu protein complex for 30 minutes to allow for binding to TEAD protein. Biotinylated YAP peptide for TEAD-YAP assays (AA's 50-100) or biotinylated TAZ peptide for TEAD-TAZ assays (AA's 13-57) that has been pre-incubated with streptavidin-xl665 acceptor (CIS-Bio Cat #610SAXAC) or is added to the compound-TEAD mix. The TEAD-YAP-inhibitor mixture is then incubated for 60 minutes at room temperature. All reactions are carried out in a polystyrene plate. After 60 minutes, the plate is read on a plate reader using TR-FRET mode with wavelengths of 665 nm/615 nm. If YAP or TAZ binds to TEAD as expected, a TR-FRET signal results from the proximity of YAP or TAZ and TEAD after binding. If an inhibitor such as peptide 17 (Selleckchem Cat #58164) interferes with YAP-TEAD or TAZ-TEAD binding, the disruption of the YAP or TAZ:TEAD interaction results in a decrease in TR-FRET signal. The potency of compounds as YAP:TEAD or TAZ:TEAD protein-protein interaction (PPi) inhibitors is determined by an IC50 or EC50 value generated using a non-linear four parameter curve fit.

[2] = target: TEAD1 TAZ (amino acids 13-57) (Homo sapiens, UniProt P28347); test: TEAD1-TAZ HTRF (TR-FRET) protein-protein interaction assay; settings: for TEAD1 TAZ HTRF combined: Max % Inhibition: TEAD1, TAZ peptide; for EC50: TEAD1-TAZ HTRF, TR-FRET 665 nm/615 nm, read-out: TEAD1 TAZ HTRF combined: EC50
Procedure: as §1

[3] = target: TEAD4 YAP50-100 (Homo sapiens, UniProt Q15561); test: TEAD4-YAP HTRF (TR-FRET) protein-protein interaction assay; settings: TEAD4, YAP peptide 50-100, HTRF; for EC50: read-out: TEAD4 YAP50-100 HTRF combined: EC50
Procedure: as §1

[4] = target: TEAD2 TAZ (amino acids 13-57) (Homo sapiens, UniProt Q15562); test: TEAD2-TAZ HTRF (TR-FRET) protein-protein interaction assay; settings: for TEAD2 TAZ HTRF combined: Max % Inhibition: TEAD2, TAZ peptide; for EC50: TEAD2-TAZ HTRF, TR-FRET 665 nm/615 nm, read-out: TEAD2 TAZ HTRF combined: EC50
Procedure: as §1

[5] = target: TEAD4 TAZ (amino acids 13-57) (Homo sapiens, UniProt Q15561); test: TEAD4-TAZ HTRF (TR-FRET) protein-protein interaction assay; settings: for TEAD4 TAZ HTRF combined: Max % Inhibition: TEAD4, TAZ peptide; for EC50: TEAD4-TAZ HTRF, TR-FRET 665 nm/615 nm, read-out: TEAD4 TAZ HTRF combined: EC50
Procedure: as §1

[6] = target: TEAD1 YAP50-100 (Homo sapiens, UniProt P28347); test: TEAD1-YAP HTRF (TR-FRET) protein-protein interaction assay; settings: TEAD1, YAP peptide 50-100, HTRF; for EC50: read-out: TEAD1 YAP50-100 HTRF combined: EC50
Procedure: as §1

[7] = target: TEAD2 YAP50-100 (Homo sapiens, UniProt Q15562); test: TEAD2-YAP HTRF (TR-FRET) protein-protein interaction assay; settings: TEAD2, YAP peptide 50-100, HTRF; for EC50: read-out: TEAD2 YAP50-100 HTRF combined: EC50
Procedure: as §1

[8] = target: TEAD3 TAZ (amino acids 13-57) (Homo sapiens, UniProt Q99594); test: TEAD3-TAZ HTRF (TR-FRET) protein-protein interaction assay; settings: for TEAD3 TAZ HTRF combined: Max % Inhibition: TEAD3, TAZ peptide; for EC50: TEAD3-TAZ HTRF, TR-FRET 665 nm/615 nm, read-out: TEAD3 TAZ HTRF combined: EC50
Procedure: as §1

Sequence of TEAD1 TAZ (amino acids 13-57) (P28347 167-426 limits assumed): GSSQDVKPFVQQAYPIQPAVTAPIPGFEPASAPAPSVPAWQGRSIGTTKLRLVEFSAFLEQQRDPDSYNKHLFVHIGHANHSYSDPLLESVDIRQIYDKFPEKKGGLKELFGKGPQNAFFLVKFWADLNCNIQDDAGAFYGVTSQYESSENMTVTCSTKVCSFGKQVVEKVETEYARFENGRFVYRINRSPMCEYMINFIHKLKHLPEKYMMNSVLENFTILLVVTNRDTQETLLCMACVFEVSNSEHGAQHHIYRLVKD
Sequence of TEAD1 YAP50-100 (P28347 167-426 limits assumed): as above
Sequence of TEAD3 YAP50-100 (Q99594 173-435 limits assumed): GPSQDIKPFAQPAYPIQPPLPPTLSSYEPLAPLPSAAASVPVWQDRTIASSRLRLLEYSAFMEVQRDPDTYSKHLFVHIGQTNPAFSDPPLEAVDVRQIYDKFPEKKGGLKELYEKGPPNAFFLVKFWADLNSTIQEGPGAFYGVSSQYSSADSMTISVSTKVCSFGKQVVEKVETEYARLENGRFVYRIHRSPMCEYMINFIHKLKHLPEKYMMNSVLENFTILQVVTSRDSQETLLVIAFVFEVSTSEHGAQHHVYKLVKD
Sequence of TEAD3 TAZ (amino acids 13-57) (Q99594 173-435 limits assumed): as above
Sequence of TEAD2 YAP50-100 (Q15562 217-447): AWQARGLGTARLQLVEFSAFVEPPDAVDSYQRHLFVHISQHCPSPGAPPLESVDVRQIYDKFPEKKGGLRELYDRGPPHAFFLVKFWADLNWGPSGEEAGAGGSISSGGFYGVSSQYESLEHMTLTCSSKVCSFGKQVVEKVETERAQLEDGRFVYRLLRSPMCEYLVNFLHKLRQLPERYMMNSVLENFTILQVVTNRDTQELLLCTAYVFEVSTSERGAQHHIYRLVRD
Sequence of TEAD2 TAZ (amino acids 13-57) (Q15562 217-447): as above
Sequence of TEAD4 YAP50-100 (Q15561 217-434 limits assumed): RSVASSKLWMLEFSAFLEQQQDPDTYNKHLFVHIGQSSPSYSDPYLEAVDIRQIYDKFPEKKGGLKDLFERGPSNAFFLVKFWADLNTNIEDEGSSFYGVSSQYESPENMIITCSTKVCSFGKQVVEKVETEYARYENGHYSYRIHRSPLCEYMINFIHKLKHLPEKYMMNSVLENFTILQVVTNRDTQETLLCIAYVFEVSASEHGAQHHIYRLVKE
Sequence of TEAD4 TAZ (amino acids 13-57) (Q15561 217-434 limits assumed): as above

SMILES	TEAD3 YAP50-100 HTRF combined: Max % Inhibition [1] [%]	EC50 [1] [nM]	TEAD1 TAZ HTRF combined: Max % Inhibition [2] [%]	EC50 [2] [nM]	TEAD4 YAP50-100 HTRF combined: Max % Inhibition [3] [%]	EC50 [3] [nM]	TEAD2 TAZ HTRF combined: Max % Inhibition [4] [%]	EC50 [4] [nM]	TEAD4 TAZ HTRF combined: Max % Inhibition [5] [%]	EC50 [5] [nM]	TEAD1 YAP50-100 HTRF combined: Max % Inhibition [6] [%]	EC50 [6] [nM]	TEAD2 YAP50-100 HTRF combined: Max % Inhibition [7] [%]	EC50 [7] [nM]	TEAD3 TAZ HTRF combined: Max % Inhibition [8] [%]	EC50 [8] [nM]
Cc1nccnc1-c1nn2c(=O)cc(-c3ccc(C4CCCCC4)cc3)[nH]c2c1C(=O)N1C[C@H](CF)[C@@H]1C (single isomer, unassigned) [Isomer B, Example 41]	80.2	120	71.0	70	57.2	30	74.4	20	57.0	30	80.0	80	77.8	20	73.8	140
C[C@@H]1[C@H](CF)CN1C(=O)c1c(-c2ncccn2)nn2c(=O)cc(-c3ccc(CC4CCCC4)cc3)[nH]c12 (single isomer, unassigned) [Isomer B, Example 43]	66.0	140	60.0	50	51.0	370	71.5	20	50.0	270	65.0	50	73.0	20	65.5	150
CN(C)C(=O)c1nn2c(=O)cc(-c3ccc(C4CCCCC4)cc3)[nH]c2c1C(=O)N1CC(CF)C1 [Compound 1, 5-(4-Cyclohexylphenyl)-3-(3-(fluoromethyl)azetidine-1-carbonyl)-N,N-dimethyl-7-oxo-4,7-dihydropyrazolo[1,5-a]pyrimidine-2-carboxamide]	75.3	110	61.2	90	55.3	330	69.2	10	40.3	600	70.0	90	74.4	10	63.0	170
CN(C)C(=O)c1nn2c(=O)cc(-c3ccc(CC4CCCC4)cc3)[nH]c2c1C(=O)N1CC(CF)C1 [Compound 2, 5-(4-(Cyclopentylmethyl)phenyl)-3-(3-(fluoromethyl)azetidine-1-carbonyl)-N,N-dimethyl-7-oxo-4,7-dihydropyrazolo[1,5-a]pyrimidine-2-carboxamide]	60.5	120	47.0	70	51.5	470	66.5	10	42.0	330	62.0	60	68.0	10	44.0	120

The next lines start with the values.

TEAD3 YAP50-100 HTRF combined: Max % Inhibition [1] [%]	EC50 [1] [nM]	TEAD1 TAZ HTRF combined: Max % Inhibition [2] [%]	EC50 [2] [nM]	TEAD4 YAP50-100 HTRF combined: Max % Inhibition [3] [%]	EC50 [3] [nM]	TEAD2 TAZ HTRF combined: Max % Inhibition [4] [%]	EC50 [4] [nM]	TEAD4 TAZ HTRF combined: Max % Inhibition [5] [%]	EC50 [5] [nM]	TEAD1 YAP50-100 HTRF combined: Max % Inhibition [6] [%]	EC50 [6] [nM]	TEAD2 YAP50-100 HTRF combined: Max % Inhibition [7] [%]	EC50 [7] [nM]	TEAD3 TAZ HTRF combined: Max % Inhibition [8] [%]	EC50 [8] [nM]	SMILES
68.0	440	70.0	140	49.5	2000	78.5	120	51.0	2100	76.0	130	68.0	80	70.0	530	C[C@H]1[C@@H](CF)CN1C(=O)c1c(-c2ncccn2)nn2c(=O)cc(-c3ccc(C4CCCCC4)cc3)[nH]c12 (single isomer, unassigned) [Isomer B, Example 40]
68.0	80	59.0	60	52.5	20	62.0	10	48.5	20	68.0	40	68.0	10	60.0	90	Cc1nccnc1-c1nn2c(=O)cc(-c3ccc(CC4CCCC4)cc3)[nH]c2c1C(=O)N1C[C@H](CF)[C@@H]1C (single isomer, unassigned) [Isomer B, Example 42]
61.5	50	59.5	40	50.5	20	67.5	10	52.0	20	69.0	30	70.0	10	56.0	50	C[C@H]1[C@@H](CF)CN1C(=O)c1c(-c2cnccn2)nn2c(=O)cc(-c3ccc(CC4CCCC4)cc3)[nH]c12 (single isomer, unassigned) [Isomer B, Example 44, Cis-5-(4-(cyclopentylmethyl)phenyl)-3-(3-(fluoromethyl)-2-methylazetidine-1-carbonyl)-2-(pyrazin-2-yl)pyrazolo[1,5-a]pyrimidin-7(4H)-one]
66.5	230	44.0	90	39.5	210	55.0	10	29.0	170	55.0	60	56.5	10	44.0	190	CN(C)C(=O)c1nn2c(=O)cc(-c3cc(F)c(C4CCCCC4)c(F)c3)[nH]c2c1C(=O)N1CC(CF)C1 [Compound 3, 5-(4-Cyclohexyl-3,5-difluorophenyl)-3-(3-(fluoromethyl)azetidine-1-carbonyl)-N,N-dimethyl-7-oxo-4,7-dihydropyrazolo[1,5-a]pyrimidine-2-carboxamide]
